Data on three compounds can be found in US4371521A, “Pharmaceutical composition for retarding excessive platelet aggregation” (priority 1973, dated 1983).

Data set [1] has as its system creatine-phosphokinase. The settings on record: various buffers and pHs, cited from earlier work.
The nature of data set [2]: Acute toxicity (LD50) in male albino mice. Type of data set: in vivo. The settings on record: mouse, in vivo, Tainter and Miller, ± standard deviation.
A short description of data set [3]: Pharmacological results of the single components. The conditions noted are these: in the absence of the other component.
Data set [4] relates to male albino mice. Briefly: Acute toxicity (LD50) in male albino mice. It is filed as in vivo. The conditions noted are these: Tainter and Miller, ± standard deviation.

Read-outs that look alike come from different tables or passages of the source. A value given as a limit tells only on which side of the number the result lay.

Take `Nc1ncnc2c1ncn2[C@@H]1O[C@H](COP(=O)(O)OP(=O)(O)O)[C@@H](O)[C@H]1O` [ADP, adenosine-diphosphate, reference compound]: the Rmax in data set [1] is 1.7 μmols/minute/μg of protein. For the same compound, in data set [1] (read-out: Michaelis constant for ADP), the Km was 800 to 1000 µM.

One may read the LD50 as the dose expected to kill half of the subjects tested. A high value points to lower toxicity. `CN(CC(=O)O)C(=N)NP(=O)(O)O` [CP, creatine-phosphate]: the LD50 in data set [2] stood at 3500 ± 120 mg/kg. For the same compound, in data set [3], the “pharmacological results of the component alone” value is reported as “Neither the substrate (CP) alone (i.e. in the absence of the administration of the enzyme which brings about its conversion) nor the enzyme (CPK) alone gives the pharmacological results”. In addition, in data set [1], the Rmax was 1.1 μmols/minute/μg of protein. In addition, the Km in data set [1] (read-out: Michaelis constant for creatine-phosphate) was 5000 µM.

In the case of “CPK: enzyme found in striated and cardiac muscle and cerebral tissue; protein molecule of molecular weight 8.1×10^4; crystalline form from rabbit skeletal muscle”, in data set [4], the LD50 is greater than 100 mg/kg. The “pharmacological results of the component alone” value in data set [3] is on record as “Neither the substrate (CP) alone (i.e. in the absence of the administration of the enzyme which brings about its conversion) nor the enzyme (CPK) alone gives the pharmacological results”.
